pIC50: −log10 of the molar value.
Tested on: RBL-2H3 cells
Experiment: Inhibition of mast cell degranulation (β-hexosaminidase release)
Assay type: cell-based
Conditions: Rattus norvegicus, RBL-2H3 cells sensitized with anti-DNP IgE, triggered with DNP-HSA
Text: Mast cells are key effector cells involved in allergic and inflammatory diseases, and the Rat Basophilic Leukemia clone 2H3 (RBL-2H3) cell line is a commonly used model of allergen dependent immune modulator release (degranulation) in mast cells. On their surface, they express the high affinity receptor for IgE (FcεRI) Upon binding of antigen-specific IgE to the receptor, cells become sensitized to the IgE specific antigen (allergen). When IgE-sensitized cells then encounter multivalent antigen, the antigen clusters IgE-FcεRI complexes and initiates a signal transduction cascade that leads to degranulation, that is, the release of inflammatory mediators, such as cytokines, eicosanoids, histamine and enzymes. The assay can be used as a screening method to identify immune-modulating compounds, in particular compounds useful in the medical management of allergic and inflammatory diseases and asthma. β-hexosaminidase was previously shown to be released with the same kinetics as histamine (Schwartz et al., J Immunology; 123:1445-1450 (1979)), thus offering a simple means to monitor degranulation. The RBL-2H3 cell line has been successfully used to identify compounds with anti-allergic activity (Choo et al. Planta Med., 69:518-522 (2003)).
Cell Culture: RBL-2H3 cells obtained from the German Collection of Microorganisms and Cell Cultures (ACC312) (Braunschweig, Germany) were maintained in 70% Minimum Essential Medium with Earle's Salts, 20% RPMI 1640 Medium, 10% FBS and 2 mM L-glutamine in 95% air/5% CO2 at 37° C. and routinely checked for mycoplasma contamination. Cells were passaged every 3-4 days; after washing cells once with 35 ml PBS cells were incubated 8 min with 5 ml 0.05% Trypsin-EDTA solution at 37° C. Cells were removed from the incubator, 15 ml culture medium was added and cells were resuspended by repeated pipetting.
Cell seeding: cells were harvested with Trypsin-EDTA as described and 50-100 μl cell suspension seeded into Costar CellBind 24 well cluster plates (no. 3337). Plates were kept for 30 min at RT under the sterile hood before being transferred to the incubator. Cells were used within one or two days after seeding.
For sensitization, cells for immediate use were sensitized 6-12 h after plating; cells to be used the following day were sensitized 26-38 h after plating. Culture plates were removed from the incubator and checked for cell growth and contamination. The medium was discarded and cells were sensitized with anti-DNP IgE (0.4 μg/ml) in 0.4 ml culture medium overnight. Following overnight sensitization, cells were washed with 0.8 ml pre-warmed TyB and 0.38 ml test compound or vehicle control (supplemented or not with 1% FBS) were added to duplicate wells. Samples were adjusted to contain 1% vehicle for test compounds dissolved in organic solvents. Cells were incubated for 1 h at 37° C. At the end of the incubation period, cells were routinely stimulated with 20 μl DNP-HSA (2 μg/ml; final concentration 0.1 μg/ml) diluted in TyB and cells were incubated for 15 min at 37° C. Alternatively, cells were stimulated with 20 μl 5 μM ionomycin (final concentration 0.25 μM) or 20 μl 5 μM thapsigargin (final concentration 0.25 μM), both in the absence or presence of 20 nM PMA (final concentration). […]
MUG substrate solution, 100 μl, were added to supernatant and lysate samples and plates were incubated 30 min at 37° C. […] Fluorescene was measured at 365 nm excitation and 440 nm emmission wavelengths. […]

Q: With CCCCCCCCCCCCCC[N+](C)(C)CC(=O)N(C)C[C@H](O)[C@@H](O)[C@H](O)[C@H](O)CO [Compound 1a, N-(2-(Dimethyl(tetradecyl)ammonio)acetyl)-N-methyl-D-glucamine chloride] as the compound, how does the pIC50 read?
A: 5.42
